Data reported in patent publication US11135234B2, “Effective aminoglycoside antibiotic for multidrug-resistant bacteria” (MICROBIAL CHEMISTRY RESEARCH FOUNDATION, priority 2015, dated 2021).
Values after ≈ are worked out from the molar mass of the structure shown.

Legend:
P. aeruginosa MSC17707 = test: MIC, agar plate dilution method, P. aeruginosa MSC17707; assay type: cell-based, Pseudomonas aeruginosa; conditions: P. aeruginosa MSC17707, AMK-resistant
In short: (§1)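 Agar plate dilution per Japan Society of Chemotherapy standard; read-out = MIC in μg/mL.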

[1] = tested on: K. pneumoniae ATCC BAA-2146; test: MIC, agar plate dilution method, K. pneumoniae ATCC BAA-2146; assay type: cell-based, Klebsiella pneumoniae; conditions: K. pneumoniae ATCC BAA-2146, NDM-producing strain
In short: as §1

[2] = tested on: A. baumannii ATCC BAA-1710; test: MIC, agar plate dilution method, A. baumannii ATCC BAA-1710; assay type: cell-based, Acinetobacter baumannii; conditions: A. baumannii ATCC BAA-1710, MDRA
In short: as §1

P. aeruginosa PAO1/GN315 = test: MIC, agar plate dilution method, P. aeruginosa PAO1/GN315; assay type: cell-based, Pseudomonas aeruginosa; conditions: P. aeruginosa PAO1/GN315, AMK-resistant
In short: as §1

S. marcescens GN6944 = test: MIC, agar plate dilution method, S. marcescens GN6944; assay type: cell-based, Serratia marcescens; conditions: S. marcescens GN6944, GM-resistant
In short: as §1

S. aureus RN4220 = test: MIC, agar plate dilution method, S. aureus RN4220; assay type: cell-based, Staphylococcus aureus; conditions: S. aureus RN4220, Sensitive bacterium
In short: as §1

S. marcescens TH-0447 = test: MIC, agar plate dilution method, S. marcescens TH-0447; assay type: cell-based, Serratia marcescens; conditions: S. marcescens TH-0447, AMK-resistant
In short: as §1

P. aeruginosa PAO1 = test: MIC, agar plate dilution method, P. aeruginosa PAO1; assay type: cell-based, Pseudomonas aeruginosa; conditions: P. aeruginosa PAO1, Sensitive bacterium
In short: as §1

S. aureus MF490 = test: MIC, agar plate dilution method, S. aureus MF490; assay type: cell-based, Staphylococcus aureus; conditions: S. aureus MF490, MRSA
In short: as §1

P. aeruginosa MSC01035 = test: MIC, agar plate dilution method, P. aeruginosa MSC01035; assay type: cell-based, Pseudomonas aeruginosa; conditions: P. aeruginosa MSC01035, ABK-resistant
In short: as §1

E. faecium ATCC19434 = test: MIC, agar plate dilution method, E. faecium ATCC19434; assay type: cell-based, Enterococcus faecium; conditions: E. faecium ATCC19434
In short: as §1

S. aureus RN4220/pMS520 = test: MIC, agar plate dilution method, S. aureus RN4220/pMS520; assay type: cell-based, Staphylococcus aureus; conditions: S. aureus RN4220/pMS520, MRSA
In short: as §1

E. coli JM109/pMW218 = test: MIC, agar plate dilution method, E. coli JM109/pMW218; assay type: cell-based, Escherichia coli; conditions: E. coli JM109/pMW218, Sensitive bacterium
In short: as §1

[3] = tested on: K. pneumoniae ATCC BAA-1705; test: MIC, agar plate dilution method, K. pneumoniae ATCC BAA-1705; assay type: cell-based, Klebsiella pneumoniae; conditions: K. pneumoniae ATCC BAA-1705, KPC-producing strain
In short: as §1

Row | Compound | minimal inhibitory concentration (MIC) (P. aeruginosa MSC17707) | minimal inhibitory concentration (MIC) [1] | minimal inhibitory concentration (MIC) [2] | minimal inhibitory concentration (MIC) (P. aeruginosa PAO1/GN315) | minimal inhibitory concentration (MIC) (S. marcescens GN6944) | minimal inhibitory concentration (MIC) (S. aureus RN4220) | minimal inhibitory concentration (MIC) (S. marcescens TH-0447) | minimal inhibitory concentration (MIC) (P. aeruginosa PAO1) | minimal inhibitory concentration (MIC) (S. aureus MF490) | minimal inhibitory concentration (MIC) (P. aeruginosa MSC01035) | minimal inhibitory concentration (MIC) (E. faecium ATCC19434) | minimal inhibitory concentration (MIC) (S. aureus RN4220/pMS520) | minimal inhibitory concentration (MIC) (E. coli JM109/pMW218) | minimal inhibitory concentration (MIC) [3]
1 | CNC1C(OC2OC(CO)C(N)CC2O)OC2CC(N)C(OC3CCC(N)CC3N)OC2C1O (stereo not shown) [Compound N7, 5,6,3″-trideoxyapramycin] | 8 µg/mL (≈ 16.3 µM) | 1 µg/mL (≈ 2.03 µM) | 8 µg/mL (≈ 16.3 µM) | 4 µg/mL (≈ 8.14 µM) | 4 µg/mL (≈ 8.14 µM) | 2 µg/mL (≈ 4.07 µM) | 8 µg/mL (≈ 16.3 µM) | 4 µg/mL (≈ 8.14 µM) | 8 µg/mL (≈ 16.3 µM) | 8 µg/mL (≈ 16.3 µM) | 16 µg/mL (≈ 32.5 µM) | 2 µg/mL (≈ 4.07 µM) | 1 µg/mL (≈ 2.03 µM) | 1 µg/mL (≈ 2.03 µM)
2 | CNC1C(OC2OC(CO)C(N)CC2O)OC2CC(N)C(OC3C(N)CC(N)C(O)C3N)OC2C1O (stereo not shown) [Compound N9, 5-amino-5,3″-dideoxy-5-epiapramycin] | 8 µg/mL (≈ 15.3 µM) | 1 µg/mL (≈ 1.91 µM) | 8 µg/mL (≈ 15.3 µM) | 4 µg/mL (≈ 7.65 µM) | 8 µg/mL (≈ 15.3 µM) | 2 µg/mL (≈ 3.83 µM) | 8 µg/mL (≈ 15.3 µM) | 4 µg/mL (≈ 7.65 µM) | 8 µg/mL (≈ 15.3 µM) | 8 µg/mL (≈ 15.3 µM) | 16 µg/mL (≈ 30.6 µM) | 2 µg/mL (≈ 3.83 µM) | 1 µg/mL (≈ 1.91 µM) | 2 µg/mL (≈ 3.83 µM)
3 | CN[C@@H]1[C@@H](O[C@@H]2C[C@H](O)[C@H](N)[C@@H](CO)O2)O[C@H]2C[C@@H](N)[C@@H](O[C@H]3[C@@H](F)[C@@H](O)[C@H](N)C[C@@H]3N)O[C@@H]2[C@@H]1O [Compound O5, 5,2″-dideoxy-5,3″-diepi-5-fluoroapramycin] | 4 µg/mL (≈ 7.61 µM) | 0.5 µg/mL (≈ 0.951 µM) | 4 µg/mL (≈ 7.61 µM) | 2 µg/mL (≈ 3.81 µM) | 2 µg/mL (≈ 3.81 µM) | 1 µg/mL (≈ 1.9 µM) | 4 µg/mL (≈ 7.61 µM) | 2 µg/mL (≈ 3.81 µM) | 4 µg/mL (≈ 7.61 µM) | 4 µg/mL (≈ 7.61 µM) | 8 µg/mL (≈ 15.2 µM) | 1 µg/mL (≈ 1.9 µM) | 0.5 µg/mL (≈ 0.951 µM) | 1 µg/mL (≈ 1.9 µM)
4 | CN[C@@H]1[C@@H](O[C@H]2O[C@H](CO)[C@@H](N)[C@@H](O)[C@H]2O)O[C@H]2C[C@@H](N)[C@@H](O[C@H]3[C@@H](O)[C@@H](O)[C@H](N)C[C@@H]3N)O[C@@H]2[C@@H]1O [Compound P4, 5,3″-diepiapramycin] | 4 µg/mL (≈ 7.41 µM) | 2 µg/mL (≈ 3.71 µM) | 8 µg/mL (≈ 14.8 µM) | 4 µg/mL (≈ 7.41 µM) | 8 µg/mL (≈ 14.8 µM) | 2 µg/mL (≈ 3.71 µM) | 8 µg/mL (≈ 14.8 µM) | 4 µg/mL (≈ 7.41 µM) | 4 µg/mL (≈ 7.41 µM) | 8 µg/mL (≈ 14.8 µM) | 16 µg/mL (≈ 29.7 µM) | 2 µg/mL (≈ 3.71 µM) | 2 µg/mL (≈ 3.71 µM) | 2 µg/mL (≈ 3.71 µM)
5 | CNC1C(OC2OC(C)C(N)C(O)C2O)OC2CC(N)C(OC3C(N)CC(N)CC3O)OC2C1O (stereo not shown) [Compound Q4, 6,6″-dideoxy-5-epiapramycin] | 8 µg/mL (≈ 15.8 µM) | 1 µg/mL (≈ 1.97 µM) | 8 µg/mL (≈ 15.8 µM) | 4 µg/mL (≈ 7.88 µM) | 4 µg/mL (≈ 7.88 µM) | 2 µg/mL (≈ 3.94 µM) | 4 µg/mL (≈ 7.88 µM) | 4 µg/mL (≈ 7.88 µM) | 4 µg/mL (≈ 7.88 µM) | 8 µg/mL (≈ 15.8 µM) | 8 µg/mL (≈ 15.8 µM) | 1 µg/mL (≈ 1.97 µM) | 0.5 µg/mL (≈ 0.985 µM) | 1 µg/mL (≈ 1.97 µM)
